Data published in publication PMC7532674, “Synthesis and preliminary studies of ^11C-labeled tetrahydro-1,7-naphthyridine-2-carboxamides for PET imaging of metabotropic glutamate receptor 2” (Theranostics, 2020).
Like-named read-outs stand apart in the source and are kept apart here. Blank lines part the entries; values can stand above or below the compound they belong to.

Assays:
[1] = molecular target: T1, hERG (Homo sapiens, UniProt Q12809); experiment: hERG safety assay; assay type: binding
T1 construct: NIMH PDSP

[2] = molecular target: T2, human mGlu3 (Homo sapiens, UniProt Q14832); experiment: Human mGlu3 GIRK thallium flux assay; assay type: cell-based; settings: HEK293 cells, triplicate assays (14g duplicate)
T2 construct: expressed in transfected cells
Protocol: (§1) Cell Line Generation and Thallium Flux Assays. The general procedure for the preparation of human mGlu2 and mGlu3 was described previously, [56] with minor modifications in this work. The cloning sites were NheI/NotI for both receptors. HEK GIRK cells, generously provided by Lily Jan (University of California San Francisco, San Francisco, CA), were transfected with 24 μg of DNA using Fugene6 (Promega), stable transfectants were selected with 1 μg/mL puromycin dihydrochloride (Sigma-Aldrich, St. Louis, MO), and polyclonal human mGlu2 GIRK and mGlu3 GIRK cell lines were established. Cells were maintained following selection in 45% DMEM, 45% Ham's F12, 10% FBS, 100 units/mL penicillin/streptomycin, 20 mM HEPES, pH 7.3, 1 mM sodium pyruvate, 2 mM glutamine, 700 μg/mL G418 (Mediatech, Inc., Herndon, VA), and […] puromycin (growth media) at 37 °C in the presence of 5% CO2. All cell culture reagents were purchased from Invitrogen Corp. (Carlsbad, CA) unless otherwise noted.
(§2) Human mGlu2 and mGlu3 Thallium Flux in Vitro Assays. Potencies of these NAMs at both mGlu2 and mGlu3 were investigated by thallium flux through GIRK channels, which was disclosed in detail as well as described in our previous work. In particular, cells were plated into 384-well, black-walled, clear-bottomed poly(D-lysine_-coated plates at a density of 15 000 cells per well in 20 μL of DMEM containing 10% dialyzed FBS, 20 mM HEPES, and 100 units/mL penicillin/streptomycin (assay media). Plated cells were incubated overnight at 37 °C in the presence of 5% CO2. The next day, the medium was exchanged from the cells to assay buffer [Hanks' balanced salt solution (Invitrogen) containing 20 mM HEPES, pH 7.3] using an ELX405 microplate washer (BioTek), leaving 20 μL per well, followed by the addition of 20 μL per well of FluoZin2-AM (330 nM final concentration) indicator dye (Invitrogen; prepared as a stock in DMSO and mixed in a 1:1 ratio with Pluronic acid F-127) in assay buffer. Cells were incubated for 1 h at room temperature, and the dye was exchanged to assay buffer using an ELX405, leaving 20 μL per well. For concentration-response curve experiments, compounds were serially diluted 1:3 into 10 point concentration-response curves and were transferred to daughter plates using an Echo acoustic plate reformatter (Labcyte, Sunnyvale, CA). Test compounds were diluted to 2 times their final desired concentration in assay buffer (0.3% DMSO final concentration). Agonists were diluted in thallium buffer [125 mM sodium bicarbonate (added fresh the morning of the experiment), 1 mM magnesium sulfate, 1.8 mM calcium sulfate, 5 mM glucose, 12 mM thallium sulfate, and 10 mM HEPES, pH 7.3] at 5 times the final concentration to be assayed. Cell plates and compound plates were loaded onto a kinetic imaging plate reader (FDSS 6000 or 7000; Hamamatsu Corporation, Bridgewater, NJ). Appropriate baseline readings were taken (10 images at 1 Hz; excitation, 470 ± 20 nm; emission, 540 ± 30 nm), and test compounds were added in a 20 μL volume and incubated for approximately 1 h at room temperature before the addition of 10 μL of thallium buffer with or without an EC80 concentration of the agonist glutamate for affinity evaluation experiments or with a full concentration-response of glutamate for Schild analysis experiments. After the addition of agonist, data were collected for approximately an additional 2.5 min. Data were analyzed using Excel (Microsoft Corp, Redmond, WA). The slope of the fluorescence increase beginning 5 s after thallium/agonist addition and ending 15 s after thallium/agonist addition was calculated, corrected to vehicle and maximal agonist control slope values, and plotted using either XLfit (ID Business Solutions Ltd.) or Prism software (GraphPad Software, San Diego, CA) to generate concentration-response curves. Potencies were calculated from fits using a four-point parameter logistic equation.

[3] = test system: major CNS targets; experiment: CNS panel binding selectivity assays (NIMH PDSP)
[4] = molecular target: T3, human mGlu2 (Homo sapiens, UniProt Q14416); experiment: Human mGlu2 GIRK thallium flux assay; assay type: cell-based; settings: HEK293 cells, EC80 glutamate, triplicate assays (14g duplicate)
T3 construct: expressed in transfected cells
Protocol: as §1, §2

[5] = test system: mGlu1, mGlu4, mGlu5, mGlu6 and mGlu8; experiment: Functional (agonist and antagonist) assays towards mGlu receptors; assay type: cell-based; settings: mGlu1, 4, 5, 6, 8
[6] = molecular target: T4, mGlu2 (Rattus norvegicus, UniProt P31421); experiment: In vitro autoradiography in rat brain sections; assay type: binding; design: from tissue; host or cells: Sprague-Dawley rat brain sections
Protocol: Sagittal rat brain slices were prepared into 20 μm sections with a cryostat (HM560; Carl Zeiss, Oberkochen, Germany), mounted on air plasma spray-coated glass slides, and stored at -80 °C before used for experiments. The sections were preincubated for 15 min in a glass tank containing 200 mL of Tris·HCl buffer (50 mM, pH 7.4) consisting of 2 mM of MgCl2 and 1.2 mM of CaCl2 at room temperature. After preincubation, the sections were incubated in a fresh buffer containing [^11C]14a or [^11C]14b (250 µCi in 200 mL buffer; molar activity 2.7 Ci/µmol of [^11C]14a and 2.5 Ci/µmol of [^11C]14b, respectively) in the glass tank for 30 min at room temperature. For blocking studies, non-radioactive 14a or 14b (10 μM) and QCA (10 μM) were chosen to determine the specificity of radiotracers for binding mGlu2. Six serial brain sections were used for each conditions. After incubation, brain sections were washed with cold buffer (3 × 5 min), immersed in cold distilled water, and then dried with cold air. The sections were placed in contact with imaging plates (BAS-MS2025, FUJIFILM, Tokyo, Japan). Autoradiograms were obtained and photostimulated luminescence (PSL) values in the ROIs were measured using a Bio-Imaging Analyzer System (BAS5000, FUJIFILM).

[7] = Whole body ex vivo biodistribution in mice
Protocol: Each mouse was treated with a bolus injection of [^11C]14b (50 μCi / 150 μL) via the tail vein. Three mice were sacrificed by cervical dislocation at each time point (1, 5, 15, 30 and 60 min) after injection. Major organs, including heart, lungs, liver, pancreas, spleen, kidneys, stomach (including contents), small intestine (including contents), large intestine (including contents), testes, muscle, whole brain and blood samples were quickly removed and weighed. The radioactivity remained in these organs was measured by a 2480 Wizard autogamma counter (PerkinElmer, USA). The results are expressed as the percentage of injected dose per gram of wet tissue (%ID/g) or standardized uptake value (SUV). All radioactivity measurements were decay-corrected to the time point of PET tracer injection based on half-life of ^11C.

[8] = Radiometabolite analysis in plasma and brain; assay type: in vivo, Sprague-Dawley rats; settings: SD rats
Protocol: Sprague-Dawley rats were sacrificed by decapitation under anesthesia at 5 and 20 min (n = 2 each time point) after the intravenous injection of [^11C]14b. Blood and whole brain samples were quickly harvested. Plasma was separated from the blood samples via 1) centrifuging at 15,000 g for 2 min at 4 °C, 2) mixing 0.5 mL of acetonitrile with 0.5 mL of supernatant, and then 3) vortexing for 15 s and centrifuging again at 15,000 g for 2 min for deproteinization. In terms of brain metabolite analysis, the removed rat brain was quickly placed on the ice, homogenized in an ice-cooled CH3CN/H2O (v/v, 1/1, 1 mL) solution, and then centrifuged at 15,000 g for 2 min at 4 °C. The supernatant was collected, whose radioactivity was >90% based on the total radioactivity in the brain homogenate. An aliquot of the supernatant (100 μL) obtained from the plasma or brain homogenate was injected into the radio-HPLC system and analyzed using a Capcell Pak UG80 C18 column (4.6 mm ID × 250 mm) in a mobile phase of CH3CN/H2O + 0.1% Et3N (v/v, 45/55) at a flow rate of 1.0 mL/min. The percentage of [^11C]14b to total radioactivity (corrected for decay) on the HPLC charts was calculated as ([peak area for [^11C]14b]/[total peak area]) × 100.

[9] = molecular target: T4, mGlu2; experiment: Dynamic PET imaging in rat brain; assay type: in vivo, SD rats; design: from tissue; host or cells: brain of living SD rats
Protocol: As we previously reported, PET scans were carried out by an Inveon PET scanner (Siemens Medical Solutions, Knoxville, TN, USA). During the scan, SD rats were anesthetized by oxygen mixed with 1-2% (v/v) isoflurane and kept body temperature at […] by a commercially available circulation system (T/Pump TP401, Gaymar Industries, Orchard Park, NY). A 24-gauge catheter was inserted into the tail vein to facilitate a bolus injection. The radiotracer [^11C]14a or [^11C]14b (ca. 1 mCi / 150-200 μL) was injected into the rat via the preinstalled catheter, and the dynamic acquisition of PET signals in rat brain was started at the same time and lasted for 60 min in 3D list mode. For pretreatment studies, 14a (1 mg/kg for [^11C]14a for self-blocking study in Figure S2; 3 mg/kg for [^11C]14b for blocking study in Figure S12C) or 14b (1 mg/kg for [^11C]14b for self-blocking study in Figure S12B), formulated in 300 μL of saline containing 10% ethanol and 5% Tween 80, was injected at 30 min via the tail vein catheter prior to the injection of [^11C]14a or [^11C]14b. The dynamic emission data were reconstructed by filtered back projection using Hanning's filter with a Nyquist cutoff of 0.5 cycle/pixel into 33 frames (10 s × twelve frames, 20 s × three frames, 30 s × three frames, 60 s × three frames, 150 s × three frames, and 300 s × nine frames). The TACs of [^11C]14a or [^11C]14b were analyzed from volumes of interest in the striatum, hippocampus, cortex, thalamus, pons and cerebellum normalized to a rat brain MRI template using PMOD software (version 3.4; PMOD technology, Zurich, Switzerland). The radioactivity was decay-corrected to the injection time and expressed as the standardized uptake value (SUV) which equals to (radioactivity per milliliter of tissue per injected radioactivity) × (gram of body weight). To obtain non-displaceable binding potential (BPND), simplified reference tissue model (SRTM), [54] was carried out on the basis of kinetic analysis using PMOD software. We acquired BP-parametric images using kinetic modeling without masking. Respective TACs in receptor-rich or -poor region were loaded for production of BP-map with default setting. Representative parametric images scaled with BPND were reconstructed by PMOD software using TACs in mGlu2-enriched and reference regions. Pons was selected as the reference region for mGlu2 (the lowest and consistent brain uptake and washout kinetics between baseline and blocking conditions). It should be noted that while there is a low-level expression of mGlu2 in the pons, it is not without existence. A reference region should be a region devoid of the target, but with similar tracer transport or diffusion to the other regions of interest with expression of the target. Therefore, there are some limitations when using pons as the reference region. For example, the partial volume effect in PET likely leads to spillover of activity from nearby higher uptake regions into the pons, artificially increasing the time-activity curve in the pons.

[10] = test system: mGlu2; settings: cited from earlier work
[11] = design: method as in PMID 30611634; settings: cited from earlier work
[12] = cited from earlier work
[13] = SRTM, pons as reference, baseline

T4 sequence (P31421 19-872): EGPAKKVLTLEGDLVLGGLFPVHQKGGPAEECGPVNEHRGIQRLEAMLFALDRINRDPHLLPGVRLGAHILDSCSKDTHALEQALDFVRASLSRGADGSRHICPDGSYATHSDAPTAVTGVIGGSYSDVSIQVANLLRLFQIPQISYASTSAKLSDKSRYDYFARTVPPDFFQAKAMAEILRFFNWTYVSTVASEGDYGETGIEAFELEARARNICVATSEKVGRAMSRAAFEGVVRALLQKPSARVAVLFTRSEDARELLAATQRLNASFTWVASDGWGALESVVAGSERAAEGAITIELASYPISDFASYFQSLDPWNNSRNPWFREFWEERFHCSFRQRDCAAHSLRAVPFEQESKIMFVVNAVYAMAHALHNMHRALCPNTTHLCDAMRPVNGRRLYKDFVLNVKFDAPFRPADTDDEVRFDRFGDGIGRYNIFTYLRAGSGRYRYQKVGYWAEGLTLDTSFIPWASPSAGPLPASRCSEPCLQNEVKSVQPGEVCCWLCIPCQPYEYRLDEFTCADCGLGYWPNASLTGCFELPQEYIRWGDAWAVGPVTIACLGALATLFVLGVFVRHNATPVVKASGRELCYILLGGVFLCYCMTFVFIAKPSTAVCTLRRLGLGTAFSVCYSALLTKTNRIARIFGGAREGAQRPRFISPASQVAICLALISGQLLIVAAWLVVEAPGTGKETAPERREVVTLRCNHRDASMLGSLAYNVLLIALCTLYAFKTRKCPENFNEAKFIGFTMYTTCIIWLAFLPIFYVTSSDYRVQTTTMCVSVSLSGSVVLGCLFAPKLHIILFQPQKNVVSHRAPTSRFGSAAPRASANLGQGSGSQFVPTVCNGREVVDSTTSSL
T3 sequence (Q14416 19-872): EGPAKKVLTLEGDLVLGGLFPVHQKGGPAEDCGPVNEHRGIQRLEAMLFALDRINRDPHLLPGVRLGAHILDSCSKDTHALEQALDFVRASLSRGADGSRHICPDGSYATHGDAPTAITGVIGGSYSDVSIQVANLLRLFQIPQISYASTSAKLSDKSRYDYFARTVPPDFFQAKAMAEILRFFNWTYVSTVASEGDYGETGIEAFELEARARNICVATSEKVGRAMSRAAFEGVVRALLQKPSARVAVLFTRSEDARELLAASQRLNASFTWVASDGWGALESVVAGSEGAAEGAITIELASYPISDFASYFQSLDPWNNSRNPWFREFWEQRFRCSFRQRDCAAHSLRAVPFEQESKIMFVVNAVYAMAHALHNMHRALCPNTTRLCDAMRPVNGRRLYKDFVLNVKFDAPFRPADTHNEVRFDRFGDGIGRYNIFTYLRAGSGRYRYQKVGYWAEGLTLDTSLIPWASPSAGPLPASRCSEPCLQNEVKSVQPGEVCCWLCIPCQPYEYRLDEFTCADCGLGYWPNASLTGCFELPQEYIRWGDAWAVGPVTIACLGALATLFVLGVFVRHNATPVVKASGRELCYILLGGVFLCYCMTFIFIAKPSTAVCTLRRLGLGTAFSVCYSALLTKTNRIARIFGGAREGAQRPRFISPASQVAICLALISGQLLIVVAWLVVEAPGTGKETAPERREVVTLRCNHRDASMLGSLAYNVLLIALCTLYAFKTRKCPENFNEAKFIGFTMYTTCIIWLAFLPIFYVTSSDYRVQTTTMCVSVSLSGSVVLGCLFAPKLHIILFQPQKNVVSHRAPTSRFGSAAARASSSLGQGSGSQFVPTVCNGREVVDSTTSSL
T1 sequence (Q12809 whole entry): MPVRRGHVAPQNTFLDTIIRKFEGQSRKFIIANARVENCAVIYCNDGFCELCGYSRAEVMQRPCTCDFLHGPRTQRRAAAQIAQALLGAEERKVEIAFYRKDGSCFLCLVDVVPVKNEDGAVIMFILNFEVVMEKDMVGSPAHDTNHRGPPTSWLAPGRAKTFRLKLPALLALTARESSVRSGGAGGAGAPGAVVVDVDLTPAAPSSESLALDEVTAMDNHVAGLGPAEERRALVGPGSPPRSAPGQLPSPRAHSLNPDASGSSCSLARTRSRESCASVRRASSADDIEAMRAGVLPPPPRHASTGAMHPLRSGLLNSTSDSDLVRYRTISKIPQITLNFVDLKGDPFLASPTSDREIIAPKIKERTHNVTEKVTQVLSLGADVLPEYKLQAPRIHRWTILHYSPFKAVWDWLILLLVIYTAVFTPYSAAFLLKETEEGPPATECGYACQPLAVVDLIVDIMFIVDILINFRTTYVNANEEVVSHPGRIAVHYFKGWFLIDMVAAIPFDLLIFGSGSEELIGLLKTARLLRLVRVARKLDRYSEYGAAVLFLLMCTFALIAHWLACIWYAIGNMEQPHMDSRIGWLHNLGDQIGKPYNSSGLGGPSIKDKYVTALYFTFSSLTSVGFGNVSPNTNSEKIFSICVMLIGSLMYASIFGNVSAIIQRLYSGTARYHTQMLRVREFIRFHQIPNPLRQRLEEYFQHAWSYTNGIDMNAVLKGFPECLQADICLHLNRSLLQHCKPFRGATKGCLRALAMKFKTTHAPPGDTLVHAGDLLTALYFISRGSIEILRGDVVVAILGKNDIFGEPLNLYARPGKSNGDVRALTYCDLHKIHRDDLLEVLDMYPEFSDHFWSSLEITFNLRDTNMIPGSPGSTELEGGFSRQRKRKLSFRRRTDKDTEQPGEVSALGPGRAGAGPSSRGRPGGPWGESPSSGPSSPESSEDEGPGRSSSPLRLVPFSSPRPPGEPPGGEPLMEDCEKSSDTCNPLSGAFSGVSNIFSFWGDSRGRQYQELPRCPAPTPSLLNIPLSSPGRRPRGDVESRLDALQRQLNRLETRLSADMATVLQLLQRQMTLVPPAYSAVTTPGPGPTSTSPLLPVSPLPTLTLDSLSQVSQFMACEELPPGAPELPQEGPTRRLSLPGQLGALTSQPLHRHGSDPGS
T2 sequence (Q14832 23-879): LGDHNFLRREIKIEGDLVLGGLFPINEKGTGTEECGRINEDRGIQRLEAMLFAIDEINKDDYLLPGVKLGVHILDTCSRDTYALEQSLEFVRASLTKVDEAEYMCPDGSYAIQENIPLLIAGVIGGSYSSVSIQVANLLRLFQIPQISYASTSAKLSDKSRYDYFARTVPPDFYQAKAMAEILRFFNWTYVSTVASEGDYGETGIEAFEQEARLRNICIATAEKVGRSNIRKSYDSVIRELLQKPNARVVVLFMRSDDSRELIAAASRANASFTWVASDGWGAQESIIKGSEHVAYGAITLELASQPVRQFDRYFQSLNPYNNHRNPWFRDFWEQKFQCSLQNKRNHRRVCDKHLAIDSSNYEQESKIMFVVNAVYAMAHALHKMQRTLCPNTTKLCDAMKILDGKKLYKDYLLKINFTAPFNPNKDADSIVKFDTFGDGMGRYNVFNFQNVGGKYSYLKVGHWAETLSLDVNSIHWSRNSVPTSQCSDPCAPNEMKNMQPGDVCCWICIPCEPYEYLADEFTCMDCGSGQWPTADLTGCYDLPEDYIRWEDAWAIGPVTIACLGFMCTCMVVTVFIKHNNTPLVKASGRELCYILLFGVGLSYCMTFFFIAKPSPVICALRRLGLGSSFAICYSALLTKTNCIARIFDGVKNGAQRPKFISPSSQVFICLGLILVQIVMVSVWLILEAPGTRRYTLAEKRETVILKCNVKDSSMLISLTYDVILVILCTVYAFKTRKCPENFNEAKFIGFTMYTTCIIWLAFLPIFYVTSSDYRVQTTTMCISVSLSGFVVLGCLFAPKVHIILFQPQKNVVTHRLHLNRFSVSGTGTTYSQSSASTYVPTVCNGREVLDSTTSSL

IC50 [2]: > 10 µM
Off-target binding ([3]; 10 μM compound, n = 4): No significant off-target binding (>50%)
Response with other major brain targets ([3]; comprehensive CNS panel, NIMH PDSP): no significant response
IC50 [4]: 24 nM
Interaction with related mGlu receptor family [5]: no substantial interaction
SMILES: COc1cc(CN2CCc3c(-c4ccc(F)cc4F)cc(C(N)=O)nc3C2)ccn1 [14b, 4-(2,4-difluorophenyl)-7-((2-methoxypyridin-4-yl)methyl)-5,6,7,8-tetrahydro-1,7-naphthyridine-2-carboxamide]
Activity in hERG safety assay [1]: no activity

Ratio of cerebellum to pons ([6]; autoradiography, baseline): 1.78
Ratio of cerebral cortex to pons ([6]; autoradiography, baseline): 2.61
Ratio of hippocampus to pons ([6]; autoradiography, baseline): 2.00
Ratio of striatum to pons ([6]; autoradiography, baseline): 2.79
Decrease of region-to-pons ratios under blocking ([6]; preincubated with unlabeled QCA, 14b or 14a at 10 µM): 45-69%
Ratio of %ID/g(1min/60min) in blood [7]: > 3.5
Brain uptake ([7]; 5 min post injection): ca. 3.6 %ID/g
Radioactivity in heart, lungs, liver, pancreas, kidneys and small intestine ([7]; within initial 1 min): > 4 %ID/g
Unchanged fraction in plasma ([8]; 5 min post injection): 77%
Unchanged fraction in brain ([8]; 20 min post injection): > 99%
Unchanged fraction in plasma ([8]; 20 min post injection): 21%
Time of peak radioactivity in brain regions ([9]; SD rats, i.v.): ≤ 3 min
BPND in cerebellum [9, 13]: 0.12
BPND in striatum and cingulate cortex [9, 13]: 0.72
Reduction of BPND ([9]; pretreatment with 14a, 3 mg/kg i.v. 30 min before): 48-90%
Reduction of BPND ([9]; pretreatment with 14b, 1 mg/kg i.v. 30 min before): 41-88%
SMILES: [11CH3]Oc1cc(CN2CCc3c(-c4ccc(F)cc4F)cc(C(N)=O)nc3C2)ccn1 [[^11C]14b, 4-(2,4-difluorophenyl)-7-((2-(methoxy-^11C)pyridine-4-yl)methyl)-5,6,7,8-tetrahydro-1,7-naphthyridine-2-carboxamide]

SMILES: Cc1cc(COc2cnc(C(N)=O)cc2-c2ccc(O[11CH3])cc2F)ccn1 [[^11C]MMP, 4-(2-fluoro-4-[^11C]methoxyphenyl)-5-((2-methylpyridin-4-yl)methoxy)picolinamide]
IC50 [10]: 0.026 µM
LogD [11]: 3.30
Brain uptake, peak value ([12]; animal PET): ~ 0.6

SMILES: [11CH3]Oc1ccc(-c2cc(C(N)=O)nc3cc(CN4C(=O)CCC4=O)ccc23)c(F)c1 [[^11C]QCA, 7-((2,5-Dioxopyrrolidin-1-yl)methyl)-4-(2-fluoro-4-[^11C]methoxyphenyl) quinoline-2-carboxamide]
IC50 [10]: 0.045 µM
Brain uptake, peak value [12]: ~ 0.3 SUV
